# In patent US20190201419A1, “COMPOUND AND METHOD FOR THE TREATMENT AND DIAGNOSIS OF NEURODEGENERATIVE CONDITIONS” (Swansea University, priority 2013, published 2019):
# Columns and labels:
# [1] = tested on: TH+ dopamine neurons, GABAergic or red nucleus neurons; Nkx6.1+ cells; test: Other cell types in mouse E11.5 brain primary cultures; type: cell-based
# Protocol: (§1) Primary Brain Cultures. Brains from E11.5 mice were manually dissected, plated on poly-D-lysine (150,000 cells/cm^2) and grown in serum-free N2 media consisting of 1:1 mixture of F12 and DMEM with 10 ng/mL insulin, 100 μg/mL apo-transferrin, 100 μM putrescine, 20 nM progesterone, 30 nM selenium, 6 mg/mL glucose, and 1 mg/mL BSA. Cells were treated for 3 days in vitro (DIV) with the compounds of interest, fixed with 4% PFA and processed for staining using appropriate antibodies.
# (§2) Antibodies and Detection Procedures. Cells were fixed in 4% PFA, washed in PBS and blocked in 5% normal goat serum/PBS for 1 h at room temperature. Primary antibodies were diluted in PBS (pH 7.4), 0.3% Triton X-100, 1% BSA and incubations were carried out overnight at +4° C. or at room temperature for 2 h. The antibodies used were anti-:BrdU (1:400; Abeam), Islet-1 (1:100: Developmental Studies Hybridoma Bank), cleaved caspase-3 (Aspt 75) (1:100; Cell Signaling Technology), tyrosine hydroxylase (TH; 1:1000; Pel-Freeze) GABA (1:1,000; Sigma), Bm3a (1:250; Millipore), Nkx6.1 (1:200; Novus Biologicals), choline acetyltransferase (ChAT; 1:500; Millipore) and appropriate secondary antibodies (Jackson ImmunoResearch or Alexa). Cells positive for the corresponding marker were counted directly at the microscope at a magnification of 20×. Cells were counted in every well, in eight consecutive fields (going from one side of the well to the other, passing through the center), in three different wells per experiment and in three different experiments per condition. Random pictures of the wells were taken for every condition to document the result, and representative pictures were subsequently selected to represent the quantitative data. Photos were acquired with a Zeiss Axioplan microscope and a Hamamatsu camera C4742-95 using the Openlab software.
# [2] = tested on: Islet1+ oculomotor neurons; test: In utero injection into the cerebral aqueduct of E11.5 mice; type: in vivo, mouse; details: for Number of Islet+ oculomotor neurons in vivo: injected at E11.5, analyzed at E13.5
# Source text: Animals for in-utero injections and tissue preparation. Female wild-type CD-1 mice ([…]; Charles River Breeding Laboratories) were housed, bred, and treated according to the guidelines of the European Communities Council (directive 86/609/EEC) and the Society for Neuroscience (www.sfr.org/handbook), and all experiments were approved by the local ethical committee. Ethical approval for CD-1 mice experimentation was granted by Stockholm Norra Djurförsökselisks Nämnd number N154/06, N273/11 and N370/09, For embryo analyses, wild type CD-1 mice were mated overnight, and noon of the day the plug was considered E0.5. Embryos were dissected out of the uterine horns in ice-cold PBS, fixed in 4% paraformaldehyde (PFA) for 4 h to overnight, cryoprotected in 15-30% sucrose, frozen in Tissue-Tek Optimum Cutting Temperature (OCT) compound (Sakura Fine-Tek) on dry ice, and stored at −80° C. until use. Serial coronal 14-μm sections of the brain were obtained on a cryostat.
# Immunohistochemical analysis of sections. Ten sets of 14 μm serial coronal sections were cut on a cryostat. No. 1 and 6 sets were subjected to immunohistochemistry. Sections were pre-incubated for 1 h in blocking solution followed by incubation at 4° C. overnight with following primary antibodies: anti-TH (1:750, Pel-Freeze), anti-Islet-1 (1:100; Developmental Studies Hybridoma Bank), anti-cleaved caspase-3 (Asp175) (1:100; Cell Signaling Technology). After washing, slides were incubated for 1-2 h at room temperature with the appropriate fluorophore-conjugated (Cy2-, Cy5-, 1:300, Jackson Laboratories; Alexa488-, 555-, and 647-, 1:1000, Invitrogen) secondary antibodies. Confocal pictures were taken with a Zeiss LSM5 Exciter or LSM700 microscope.
# In utero intraventricular injections. E11.5 pregnant females were deeply anesthetized using Isofluorane (IsoFlo®, Abbott Labs) and the uterine horns were accessed through an abdominal incision. 1 μL, of the different cholestenoic acids studied (5 mM) or vehicle solution (isopropanol, 50% v/v) was injected into the cerebral aqueduct. […] Embryos were analyzed 48 h later.
# active caspase 3+ cells = test: Active caspase 3+ cells in mouse E11.5 brain primary cultures; type: cell-based; details: for Concentration giving significant difference from vehicle in active caspase 3+ cells: p<0.05; for Number of active caspase-3+ cells: wt cultures, 3β,7α-diHCA, 3βH,7O-CA, 25-HC at 10 μM, toxic acids at low concentrations
# Protocol: as §1, §2
# Lxrβ = target: T1, Lxrβ (Homo sapiens, UniProt P55055); test: Lxrβ luciferase reporter assay in SN4741 neural cells; type: cell-based, mouse; details: for Lxr activational capacity in combination with 22R-HC: 10 μM acid + 10 μM 22R-HC; for Lxrβ activation, luciferase activity (fold activation): SN4741 cells, 10 μM, 24 h
# T1 construct: expressed in transfected cells; host or cells: SN4741 mouse neuronal cell line
# T1 sequence (P55055 1-460): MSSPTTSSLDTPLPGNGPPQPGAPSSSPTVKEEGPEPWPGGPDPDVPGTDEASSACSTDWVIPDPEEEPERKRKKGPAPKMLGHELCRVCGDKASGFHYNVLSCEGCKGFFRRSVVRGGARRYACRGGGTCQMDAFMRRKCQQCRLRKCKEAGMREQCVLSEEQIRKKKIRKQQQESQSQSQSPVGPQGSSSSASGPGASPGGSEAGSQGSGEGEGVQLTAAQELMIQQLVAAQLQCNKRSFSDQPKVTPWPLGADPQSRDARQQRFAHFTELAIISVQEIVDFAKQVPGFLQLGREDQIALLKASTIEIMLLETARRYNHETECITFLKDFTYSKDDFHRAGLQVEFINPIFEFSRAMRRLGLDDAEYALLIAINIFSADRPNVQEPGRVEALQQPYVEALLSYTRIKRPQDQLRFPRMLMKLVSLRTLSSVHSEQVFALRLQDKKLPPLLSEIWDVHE
# Source text: Luciferase Reporter Assay.
# [3] = tested on: Islet1+ oculomotor neurons; test: Islet1+ cells in mouse E11.5 brain primary cultures; type: cell-based; details: for Number of Islet1+ cells / Concentration giving significant difference from vehicle in Islet1+ cells: wild type cultures; for Concentration giving significant difference from vehicle in Islet1+ cells: p<0.05
# Protocol: as §1, §2
# [4] = tested on: Abca1, Abcg1 and Srebf1 transcript levels; test: Quantitative PCR of Lxr target genes in SN4741 cells; type: cell-based, mouse; details: 3 h
# Protocol: Quantitative PCR, Total RNA was extracted from SN4741. cells and zebrafish treated with the compounds of interest using the RNeasy Mini Kit (Qiagen), 1 μg was treated with RQ1 RNase-free DNase (Promega) and reverse transcribed using SuperScript II Reverse Transcriptase (invitrogen) and random primers (invitrogen) (RT+reaction). Parallel reactions without reverse transcriptase enzyme were done as a control (RT−reaction), and Sybergreen real-time quantitative PCR assays were performed. Expression levels were obtained by normalization with the Value of the housekeeping gene encoding actin obtained for every sample in parallel assays.
SMILES,Total number of Nkx6.1+ cells [1],"Number of other midbrain neurons (TH+ dopamine, GABAergic, red nucleus) ([1]; data not shown)",Effect of co-injection on the reduction of oculomotor neurons by 3β-HCA ([2]; co-injection with 3β-HCA),Number of Islet+ oculomotor neurons in vivo [2],"Reduction of neuronal cell death (activated caspase 3) induced by 2 μM 3β,7β-diHCA or 3β-HCA (active caspase 3+ cells; 10 μM)","Effect on active caspase-3+ cells with GGPP (active caspase 3+ cells; 10 μM GGPP, toxic acids at 2 μM)",Concentration giving significant difference from vehicle in active caspase 3+ cells (active caspase 3+ cells) [µM],Number of active caspase-3+ cells (active caspase 3+ cells),Lxr activational capacity in combination with 22R-HC (Lxrβ),"Lxrβ activation, luciferase activity (fold activation) (Lxrβ)","Rescue of loss of Islet1+ cells induced by 2 μM 3β,7β-diHCA or 3β-HCA ([3]; 10 μM)",Effect on Islet1+ cells in Lxrα−/−β−/− cultures ([3]; cultures from Lxrα−/−β−/− mice),Number of Islet1+ cells [3],Concentration giving significant difference from vehicle in Islet1+ cells [3] [µM],"Effect on Islet1+ cells with Lxr antagonist GGPP ([3]; wt cultures, 10 μM GGPP)","Abca1, Abcg1 and Srebf1 transcript levels [4]",Surviving cells in cultures (active caspase 3+ cells; 10 μM),"Concentration at which toxicity is initiated (active caspase 3+ cells; mouse, primary brain cultures from E11.5 mouse embryos, 3 days) [nM]"
"CC(CCC[C@@H](C)[C@H]1CC[C@H]2[C@@H]3[C@H](O)C=C4C[C@@H](O)CC[C@]4(C)[C@H]3CC[C@]12C)C(=O)O (stereo partly drawn) [3β,7α-diHCA, 3β,7α-dihydroxycholest-5-en-26-oic acid]","neither 3β,7α-diHCA nor 3β-HCA altered the total number of Nkx6.1+ cells",did not affect the number of other midbrain neurons,"this effect was eliminated by co-injection of 3β,7α-diHCA",an increase in the number of Islet+ oculomotor neurons,reduced the neuronal cell death,completely blocked by co-incubation with the Lxr inhibitor GGPP,≥ 10,decreased the number of active caspase-3+ cells,No additive effect was observed,have the ability to activate both Lxrs,reversed the loss of Islet1+ cells,eliminated,increased the number of Islet1+ oculomotor cells in the cultures,≥ 5,blocked by the Lxr antagonist GGPP,increased transcripts levels to a similar degree as 22R-HC,,
"CC(CCC[C@@H](C)[C@H]1CC[C@H]2[C@@H]3CC=C4C[C@@H](O)CC[C@]4(C)[C@H]3CC[C@]12C)C(=O)O (stereo partly drawn) [3β-HCA, 3β-hydroxycholest-5-en-26-oic acid]","neither 3β,7α-diHCA nor 3β-HCA altered the total number of Nkx6.1+ cells",,,the number of oculomotor neurons was reduced,,,≥ 2,increased the number of active caspase-3+ cells,No additive effect was observed,activates Lxr,,,caused the loss of Islet1+ cells in the cultures,≥ 2,,"induced transcription, but to a lesser extent",no surviving cells were detected,1000
